Data as given in paper PMC10539800, “Small-molecule inhibitors of the PDZ domain of Dishevelled proteins interrupt Wnt signalling” (Magnetic resonance, 2021).
“And” between values parts separate entries of the source, which are not always exact repeats. Equal entries are not always repeated.

Key:
Dvl-3 PDZ [1] = target: T1, Dvl-3 PDZ (Homo sapiens, UniProt Q92997); experiment: NMR 1H-15N HSQC chemical shift perturbation; assay type: binding; details: for Chemical shift perturbation ΔCSP: Dvl-3 PDZ, average of the three strongest shifting cross peaks
T1 construct: spectra of Dvl-3 PDZ in the absence and presence of the compound; His-tag (cleaved yes); made in house
T1 sequence (Q92997 243-336): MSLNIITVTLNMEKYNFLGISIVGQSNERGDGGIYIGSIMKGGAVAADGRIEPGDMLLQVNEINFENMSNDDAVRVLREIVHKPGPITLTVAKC
Experimental: The results of virtual screening were checked experimentally by comparing 2D ^1H-^15N HSQC (heteronuclear single quantum correlation) spectra of Dvl-3 PDZ in the absence and presence of the compound to elucidate ligand-induced changes of chemical shifts. Chemical shift perturbation differences ( Δ CSP, representing the average of the three strongest shifting cross peaks according to Eq. 1) were evaluated in cases where the residues responding strongest are inside the area defined by Fig. 1a. […] In most cases, the signals of residues S263, V287, and R320 (Fig. 1a) within the conserved binding site were most strongly perturbed (Fig. S2). With the Δ CSP of 0.12 ppm, the isoleucine-derived compound 1 ((2,3-dihydrobenzo[b][1,4]dioxin-6-yl)sulfonyl)-L-isoleucine containing a sulfonamide moiety was detected initially as one of the best “hits” according to chemical shift changes. The sulfonamide is a well-known moiety in drug discovery (Mathvink et al., 1999; Wu et al., 1999; Sleight et al., 1998; O'Brien et al., 2000; Tellew et al., 2003).
Two-dimensional ^1H-^15N HSQC spectra were used to screen a library of 212 compounds designed by the company Enamine for PDZ domains. 50 µM of ^15N -labelled protein samples was prepared in a 20 mM sodium phosphate buffer, containing 50 mM sodium chloride, 0.02 % ( w/v ) NaN3 , at pH 7.4. Stock solutions of small molecules were prepared in DMSO-d6 at a concentration of 160 mM. A ^1H-^15N HSQC spectrum of Dvl PDZ was acquired at 300 K with 5 % DMSO-d6 in the absence of ligand as reference spectrum. Mixtures of 16 compounds were added to ^15N -labelled Dvl PDZ at eightfold molar excess each. The final concentration of DMSO-d6 in the protein–ligand solutions was 5 %. Spectra were acquired with eight scans and 256 points in the indirect dimension. […] The active compound was obtained through successive deconvolution. Experiments were recorded on a Bruker DRX600 spectrometer equipped with a triple-resonance cryoprobe. The preparation of samples was done automatically by a Tecan Genesis RSP 150 pipetting robot. Spectra were analysed using the programs TOPSPIN and SPARKY (Goddard and Kneller, 2003).
50 µM of ^15N -labelled protein samples was prepared in a 20 mM sodium phosphate buffer containing 50 mM sodium chloride, 0.02 % ( w/v ) NaN3 , at pH 7.4. Stock solutions of small molecules were prepared in DMSO-d6 at a concentration of 160 mM. A ^1H-^15N HSQC spectrum of Dvl PDZ was acquired at 300 K with 5 % DMSO-d6 in the absence of ligand as reference spectrum. Mixtures of 16 compounds were added to ^15N -labelled Dvl PDZ at eightfold molar excess each. The final concentration of DMSO-d6 in the protein–ligand solutions was 5 %. Spectra were acquired with eight scans and 256 points in the indirect dimension.
The active compound was obtained through successive deconvolution. Experiments were recorded on a Bruker DRX600 spectrometer equipped with a triple-resonance cryoprobe. The preparation of samples was done automatically by a Tecan Genesis RSP 150 pipetting robot. Spectra were analysed using the programs TOPSPIN and SPARKY.

Dvl-3 PDZ [2] = target: T1, Dvl-3 PDZ; experiment: Binding constant by isothermal titration calorimetry (ITC); details: for Kd: by ITC, one-site binding model, 25 °C, read-out: K D Dvl-3 PDZ; for n (stoichiometry) Dvl-3 PDZ: ITC one-site fit
Experimental: (§2) Isothermal titration calorimetry (ITC) experiments were performed using a VP-ITC system (MicroCal). Protein in 20 mM HEPES buffer and 50 mM NaCl (pH 7.4) was centrifuged and degassed before the experiment. A 200 µM ligand solution containing 2 % DMSO was injected 30 times in 10 µL aliquots at 120 s intervals with a stirring speed of 1000 rpm into a 1.4 mL sample cell containing the Dvl PDZ domain at a concentration of 20 µM at 25 ^∘ C. Control experiment was initially determined by titrating ligand into buffer at the same conditions. […] Thermodynamic properties and binding constants were determined by fitting the data with a non-linear least-squares routine using a single-site binding model with Origin (OriginLab) for ITC v.7.2 (MicroCal).

MTT cell viability assay = assay type: cell-based; details: human; HEK293 cells, 24 h after treatment; read-out: EC 50 cell viability
Experimental: These compounds were selected due to different substituents at the R 1 , including halogens. […] In this way, we aimed to develop both potent and less-toxic cell-permeable inhibitors. […] Their binding constants almost have the same value despite the different substituents (bromine or chlorine) at the pyrrole rings. […] Instead, a π – π stacking interaction with F259 was observed (Fig. S3i).
HEK293 cells were plated on a 96-well plate and treated with different concentrations of Dvl inhibitors. After 24 h treatment, 20 µL of MTT solution (5 mg mL ^-1 ) was added into each well. After 2 h incubation, cell culture medium was replaced with 50 µL DMSO, and the signal of the purple formazan, produced by living cells, was measured by a plate reader.

Dvl-3 PDZ [3] = target: T1, Dvl-3 PDZ; experiment: Binding constant by NMR titration; details: by NMR; mean ± SD of at least six residues; read-out: K D Dvl-3 PDZ
Source text: (§1) K D is the equilibrium dissociation constant.

Dvl-3 PDZ [4] = experiment: Binding constant by NMR titration; set-up: species or system human; details: from NMR K D values
Source text: as §1

Dvl-1 PDZ = target: T2, Dvl-1 PDZ (Homo sapiens, UniProt O14640, C338S/V250I); details: ITC
T2 sequence (O14640 245-338 V250I/C338S): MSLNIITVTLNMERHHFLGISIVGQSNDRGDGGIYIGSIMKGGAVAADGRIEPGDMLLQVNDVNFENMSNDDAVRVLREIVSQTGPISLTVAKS
Experimental: as §2

## O=C(Cc1ccccc1)Nc1cccc(C(=O)Nc2ccccc2C(=O)O)c1 [CBC-322338/3289-8625, reference compound]
Dvl-3 PDZ [1]
  Chemical shift perturbation ΔCSP: around 0.1 ppm
Dvl-3 PDZ [1]; estimated from NMR CSP comparison and weak heat in ITC, read-out: binding affinity to Dvl-3
  Kd: < 50 µM
Dvl-3 PDZ [2]; ITC
  binding to Dvl-3 PDZ (in words): did not show
Dvl-3 PDZ [2]
  Kd: > 400 µM

## CC[C@H](C)[C@H](NS(=O)(=O)c1ccc2c(c1)OCCO2)C(=O)O [Compound 1, ((2,3-dihydrobenzo[b][1,4]dioxin-6-yl)sulfonyl)-L-isoleucine]
Dvl-3 PDZ [1]
  Chemical shift perturbation ΔCSP: 0.12 ppm

## CN1C(=O)Cc2cc(S(=O)(=O)Nc3ccc(F)cc3C(=O)O)ccc21 [Compound 2]
Dvl-3 PDZ [1]
  Chemical shift perturbation ΔCSP: > 0.2 ppm

## O=C(O)c1cc(F)ccc1NS(=O)(=O)c1ccc2c(c1)CCC2 [Compound 3]
MTT cell viability assay
  EC50 at 24 h: 61 to 131 µM
Dvl-3 PDZ [3]
  Kd: 80.6 ± 6.1 µM
Dvl-3 PDZ [4]
  discrimination between Dvl-3 PDZ and Dvl-1 PDZ (in words): did not distinguish

## Cc1ccc(S(=O)(=O)Nc2ccc(F)cc2C(=O)O)cc1C [Compound 4]
Dvl-3 PDZ [3]
  Kd: 83.9 ± 7.8 µM
Dvl-3 PDZ [4]
  discrimination between Dvl-3 PDZ and Dvl-1 PDZ (in words): did not distinguish

## CS(=O)(=O)Nc1ccc(F)cc1C(=O)O [Compound 6]
Dvl-3 PDZ [2]; ITC
  binding to Dvl-3 PDZ (in words): millimolar (mM) range
Dvl-3 PDZ [2]
  Kd: > 1000 µM

## O=C(O)c1cc(Br)ccc1NS(=O)(=O)c1ccc2c(c1)CCCC2 [Compound 7]
MTT cell viability assay
  EC50 at 24 h: 61 to 131 µM
Dvl-3 PDZ [3]
  Kd: 20.6 ± 2.4 µM

## O=C(O)c1cc(C(F)(F)F)ccc1NS(=O)(=O)c1ccc2c(c1)CCCC2 [Compound 8, 2-(5,6,7,8-Tetrahydronaphthalene-2-sulfonamido)-5-(trifluoromethyl) benzoic acid]
MTT cell viability assay
  EC50 at 24 h: 61 to 131 µM
Dvl-3 PDZ [2]
  Kd: 17.4 ± 0.5 µM

## O=C(O)c1cc(Cl)ccc1NS(=O)(=O)c1ccc2c(c1)CCCC2 [Compound 9]
MTT cell viability assay
  EC50 at 24 h: 61 to 131 µM
Dvl-3 PDZ [3]
  Kd: 41.1 ± 3.1 µM

## Cc1ccc(NS(=O)(=O)c2ccc3c(c2)CCCC3)c(C(=O)O)c1 [Compound 10]
MTT cell viability assay
  EC50 at 24 h: 61 to 131 µM
Dvl-3 PDZ [3]
  Kd: 62.5 ± 4.7 µM

## O=C(O)c1cc(Br)ccc1NS(=O)(=O)c1ccc2ccccc2c1 [Compound 11, 5-Bromo-2-(naphthalene-2-sulfonamido) benzoic acid]
Dvl-3 PDZ [2]
  Kd: 13.8 µM

## O=C(O)c1cc(Br)ccc1NS(=O)(=O)Cc1ccccc1 [Compound 12, 5-Bromo-2-(phenylmethylsulfonamido)benzoic acid]
Dvl-3 PDZ [2]
  Kd: 58.5 µM

## O=C(O)c1cc(Br)ccc1NS(=O)(=O)c1ccc(COc2ccccc2)cc1 [Compound 13, 5-Bromo-2-(4-(phenoxymethyl)phenylsulfonamido)benzoic acid]
Dvl-3 PDZ [2]
  Kd: 7.2 µM

## Cc1cc(C)c(S(=O)(=O)Nc2ccc(Br)cc2C(=O)O)c(C)c1 [Compound 14, 5-Bromo-2-(2,4,6-trimethylphenylsulfoamido)benzoic acid]
Dvl-3 PDZ [2]
  Kd: 58.1 ± 2.1 µM

## CC(=O)c1ccc(S(=O)(=O)Nc2ccc(C(F)(F)F)cc2C(=O)O)cc1 [Compound 15, 2-(4-Acetylphenylsulfoamido)-5-(trifluoromethyl)benzoic acid]
Dvl-3 PDZ [2]
  Kd: 52.9 ± 1.7 µM

## O=C(O)c1cc(C(F)(F)F)ccc1NS(=O)(=O)c1ccc2c(c1)OCCO2 [Compound 16, 2-(2,3-Dihydrobenzo[b][1,4]dioxine-6-sulfonamido)-5-(trifluoromethyl)benzoic acid]
Dvl-3 PDZ [2]
  Kd: 59.1 ± 1.5 µM

## Cc1cc(C)c(S(=O)(=O)Nc2ccc(C(F)(F)F)cc2C(=O)O)c(C)c1 [Compound 17, 5-(Trifluoromethyl)-2-(2,4,6-trimethylphenylsulfoamido)benzoic acid]
Dvl-3 PDZ [2]
  Kd: 49.5 µM

## Cc1ccc(NS(=O)(=O)c2ccc(CNC(=O)c3c[nH]c4ccccc34)c(Cl)c2)c(C(=O)O)c1 [Compound 19]
Dvl-1 PDZ
  T Δ S Dvl-1 PDZ: -0.3 kcal mol ^-1
  Δ G Dvl-1 PDZ: -7.0 kcal mol ^-1
  Δ H Dvl-1 PDZ: -7.3 kcal mol ^-1
Dvl-3 PDZ [2]; ITC
  T Δ S Dvl-3 PDZ: 0.4 kcal mol ^-1
  Δ H Dvl-3 PDZ: -5.9 kcal mol ^-1
Dvl-3 PDZ [2]
  Kd: 21.8 µM and 21 µM

## O=C(O)c1cccc(S(=O)(=O)Nc2cccc(S(=O)(=O)Nc3ccccc3C(=O)O)c2)c1 [NPL-1011, 3-( {3-[(2-carboxyphenyl)sulfamoyl]phenyl}sulfamoyl)benzoic acid, reference compound]
Dvl-3 PDZ [2]
  n (stoichiometry) Dvl-3 PDZ: 0.90 ± 0.08
  Kd: 79.7 ± 53.3 µM
Dvl-3 PDZ [2]; ITC, Fig. S7
  -tΔS Dvl-3 PDZ: -2.8 kcal/mol
  Δ G Dvl-3 PDZ: -5.5 kcal/mol
  Δ H Dvl-3 PDZ: -2.7 ± 1.2 kcal/mol

## CC(C)[C@H](OC(=O)[C@H](C)NC(=O)[C@@H](OC(=O)[C@H](C)NC(=O)OC(C)(C)C)C(C)C)C(=O)O [NSC668036, reference compound]
Dvl-3 PDZ [2]; ITC
  binding to Dvl-3 PDZ (in words): did not show high-affinity binding
Dvl-3 PDZ [2]
  Kd: > 400 µM

## CC1=C(CC(=O)O)c2cc(F)ccc2/C1=C\c1ccc([S+](C)[O-])cc1 (centres unmarked) [Sulindac, reference compound]
Dvl-3 PDZ [2]
  n (stoichiometry) Dvl-3 PDZ: 0.97 ±0.14
Dvl-3 PDZ [2]; ITC, Fig. S7
  -tΔS Dvl-3 PDZ: 24.9 kcal/mol
  Δ H Dvl-3 PDZ: -31.9 kcal/mol
